{"source": "patent US20130345257A1", "about": "“COMPOSITION FOR LUPUS NEPHRITIS AND METHODS OF MAKING AND USING THE SAME” (The Regents of the University of California, priority 2012, published 2013)", "format_in_all_cases": "in vivo, mouse", "key": {"[1]": {"test_system": "BWF1 mice with anti-dsDNA and low proteinuria (PU^lo)", "assay": "Therapeutic treatment of BWF1 mice with anti-dsDNA and low proteinuria (PU^lo)", "settings": "LAQ 25 mg/kg, MMF 100 mg/kg", "protocol": "Therapeutic Groups: a low proteinuria group)(PU^lo) consisted of mice with IgG anti-dsDNA detectable in serum and proteinuria ≦100 mg/dL, and a high proteinuria group (PU^hi) had proteinuria ≧300 mg/dL.\n(§1) Proteinuria was evaluated weekly using Albustix (Siemens), serum creatinine using a commercial kit (Arbor Assays) and anti-dsDNA IgG antibodies by ELISA as described previously (10). See, e.g., FIGS. 1 and 2.\n(§2) Kidney specimens of BWF1 mice (37 weeks of age in the prevention group or 7 and 11 weeks after institution of early or late therapies) were embedded in OCT compound and snap frozen. 4-5 μm an sections were air-dried, fixed with cold acetone and incubated with blocking buffer (anti-CD16/CD32 (1/50), 2% normal goat or rat serum, 2% BSA).\nHistological analysis of glomerular pathology was done by an investigator blinded to treatment group and included acute inflammatory features (endocapillary hypercellularity, mesangial hypercellularity, cellular necrosis, cellular crescents, and interstitial inflammation), and chronic features (global glomerulosclerosis (GS), focal segmental glomerulosclerosis (FSGS), and interstitial fibrosis or tubular atrophy (IF/TA)). […] The weighted total score of the clinical features was based on this formula: [endocapillary hypercellularity+mesengial hypercellularity+(cellular necrosis*2)+(cellular crescents*2)+interstitial inflammation)/5]+(GS+FSGS+IFTA)/3, with maximum score 5.2. A minimum of 25 glomeruli, of at least 10 mice per group, were scored. Scores from each individual mouse were added and averaged to yield the glomerulonephritis score."}, "[2]": {"test_system": "lupus nephritis in BWF1 mice", "assay": "Preventive treatment of pre-nephritic BWF1 mice (survival, proteinuria, creatinine, anti-dsDNA, renal histology, IgG/C3 deposition)", "protocol": "Clinical and immune cell changes were compared in groups of 10-12 BWF1 female mice in the following groups: • Group 1: Water orally 3 times a week for 24 weeks. • Group 2: Laquinimod 1 mg/kg orally 3 times a week for 24 weeks. • Group 3: Laquinimod 25 mg/kg orally 3 times a week for 24 weeks. • Group 4: Mycophenolate Mofetil 30 mg/kg orally […] for 24 weeks. • Group 5: Mycophenolate Mofetil 100 mg/kg orally […] for 24 weeks (“MMF 100”).\nPreventive Group: 11-week old (pre-nephritic) BWF1 female mice were treated orally 3 times a week with a) water; b) laquinimod at 1 mg/kg (LAQ1, low dose) or c) 25 mg/kg (LAQ25, high dose) (Teva Pharmaceutical); or 5 times a week with d) mycophenolate mofetil at 30 mg/kg (MMF30, low dose) or e) 100 mg/kg (MMF100, high dose).\nas §1, §2\nImmunoglobulin G and C3 complement glomerular deposition were investigated by incubation of cryosections with fluoroscein isothiocyanate (FITC)-conjugated goat anti-mouse IgG (1:50) (Sigma) or rat anti-mouse C3 (1:800) (Solulink) in blocking buffer for 2 hours at room temperature. Images were acquired using Nikon Eclipse TE2000-U microscope and MetaMorph 6.3 software (Sunnyvale, Calif.). Quantification of the area immunostained in tissue sections was made using the computer image analysis software ImageJ (rsbinfonihgov</>ij</>indexhtml). For histology, kidney sections were fixed in 10% formalin and 2 μm-paraffin sections were stained with H&E, PAS and methenamine silver (Jones) for histological analysis.\nHistological analysis of glomerular pathology was done by an investigator blinded to treatment group and included acute inflammatory features (endocapillary hypercellularity, mesangial hypercellularity, cellular necrosis, cellular crescents, and interstitial inflammation), and chronic features (global glomerulosclerosis (GS), focal segmental glomerulosclerosis (FSGS), and interstitial fibrosis or tubular atrophy (IF/TA)). The severity of each feature was graded as 0 (absent), 1 (lesions involving up to 25% of the component evaluated), 2 (lesions in 26-50% evaluated) or 3 (lesions in >50%) in each field of the microscope at 400× magnification. The weighted total score of the clinical features was based on this formula: [endocapillary hypercellularity+mesengial hypercellularity+(cellular necrosis*2)+(cellular crescents*2)+interstitial inflammation)/5]+(GS+FSGS+IFTA)/3, with maximum score 5.2. A minimum of 25 glomeruli, of at least 10 mice per group, were scored. Scores from each individual mouse were added and averaged to yield the glomerulonephritis score."}, "spleen cell subsets": {"test_system": "spleen cell subsets", "assay": "Spleen cell subsets of treated BWF1 mice by flow cytometry", "settings": "for Frequency of cells ± SEM: CD4+ / Frequency of cells ± SEM: CD8+ / Frequency of cells ± SEM: CD11b^+Ly6C^+Ly6G+ / Frequency of cells ± SEM: CD11b^+Ly6C^+Ly6G− / Frequency of cells ± SEM: CD11b^+MDSC−(Mφ) / Frequency of cells ± SEM: CD11c^+CD11b+(DC) / Frequency of cells ± SEM: CD11c^+CD11b− (DC) / Frequency of cells ± SEM: CD4^+CD25^+Foxp3^+ / Frequency of cells ± SEM: CD19+: spleen, LAQ 25 mg/kg, MMF 100 mg/kg"}, "[3]": {"settings": "spleen at age 32 weeks, oral gavage from age 11 weeks, LAQ 25 mg/kg 3 days per week, MMF 100 mg/kg 5 days/week"}, "[4]": {"settings": "Preventive, 25 weeks after treatment"}, "[5]": {"settings": "Preventive, 25 weeks after treatment, in % (unit assumed)"}, "[6]": {"settings": "Therapeutic (PU^lo), 10 wks after initiation of therapy"}, "[7]": {"settings": "Therapeutic (PU^lo), 10 wks after initiation of therapy, in % (unit assumed)"}}, "note": "“Also recorded” adds a separate entry of the source."}
{"smiles": "COc1c(C)c2c(c(O)c1C/C=C(\\C)CCC(=O)OCCN1CCOCC1)C(=O)OC2", "note": "[MMF, mycophenolate mofetil, reference compound]", "values": [{"measurement": "Anti-dsDNA", "setting": "[1]; PU^lo arm", "result": "not significantly decreased"}, {"measurement": "Increase of proteinuria", "setting": "[1]; PU^lo arm", "result": "prevented increased proteinuria"}, {"measurement": "Rise in serum creatinine", "setting": "[1]; PU^lo arm", "result": "prevented"}, {"measurement": "Survival", "setting": "[1]; PU^lo arm", "result": "significantly prolonged survival"}, {"measurement": "Reduction of endo-capillary hypercellularity, interstitial inflammation, and focal segmental glomerulosclerosis", "setting": "[1]; PU^lo mice", "result": "equally effective"}, {"measurement": "Survival vs. controls", "setting": "[2]; BWF1 females treated orally for 24 weeks before disease, LAQ 1 and 25 mg/kg, MMF 100 mg/kg, p=0.028", "result": "better"}, {"measurement": "Survival, low dose treatment", "setting": "[2]; LAQ 1 mg/kg 3 days a week, MMF 30 mg/kg 5 days a week, prior to anti-dsDNA and proteinuria, vs water", "result": "significantly better; also recorded: still alive at 45 weeks"}, {"measurement": "Chronic scarring (GS, FSGS, IFTA) in kidney", "setting": "[2]; higher doses, treated before proteinuria, vs water", "result": "less"}, {"measurement": "Onset of proteinuria beyond 32 weeks up until about 42 weeks", "setting": "[2]; low dose: LAQ 1 mg/kg 3 times a week, MMF 30 mg/kg", "result": "effective in delaying onset of proteinuria"}, {"measurement": "Serum/plasma IgG anti-dsDNA antibody levels", "setting": "[2]; preventive treatment, LAQ 1 or 25 mg/kg, MMF 100 mg/kg, vs water", "result": "suppressed; also recorded: lower anti-DNA levels"}, {"measurement": "Prevention of proteinuria", "setting": "[2]; preventive treatment, MMF 30 mg/kg, 18-week study period", "result": "did not"}, {"measurement": "Prevention of proteinuria", "setting": "[2]; preventive treatment, both LAQ doses (1, 25 mg/kg), MMF 100 mg/kg", "result": "prevented proteinuria and prevented the appearance of proteinuria and none"}, {"measurement": "Kidney specimens (histology, glomerular IgG and C3 deposits)", "setting": "[2]; preventive, LAQ 25 mg/kg, MMF 100 mg/kg, after more than 50% of controls developed high proteinuria", "result": "largely unremarkable"}, {"measurement": "Mice with proteinuria at 32 wks. of age", "setting": "[2]; treated before disease, LAQ 1 and 25 mg/kg, MMF 100 mg/kg, water 50%, p<0.0001", "result": "zero and none"}, {"measurement": "Mean total histologic score (renal histology)", "setting": "[2]; treated before disease, MMF 100 mg/kg, water 7.8, p<0.01", "result": 0.9}, {"measurement": "Glomerular deposition of Ig and C3", "setting": "[2]; treated prior to onset of clinical nephritis, vs water group p<0.001", "result": "in the normal range; also recorded: significantly decreased"}, {"measurement": "Numbers of MM (splenic PBMC)", "setting": "spleen cell subsets; mouse, in vivo", "result": "not"}, {"measurement": "Frequency of cells ± SEM: CD11b^+CD103^− (MΦ^1)", "setting": "spleen cell subsets; [3]", "result": "2.26 ± 0.25^A"}, {"measurement": "Frequency of cells ± SEM: CD11b^+Ly6C^intGr-1^− (MΦ^3)", "setting": "spleen cell subsets; [3]", "result": "23.44 ± 1.89"}, {"measurement": "Frequency of cells ± SEM: CD11c^+CD103^+ (DC)", "setting": "spleen cell subsets; [3]", "result": "0.48 ± 0.04^A"}, {"measurement": "Frequency of cells ± SEM: CD19^+CD23^+CD21^+IgM^hi (T2)", "setting": "spleen cell subsets; spleen at age 32 weeks, oral gavage from age 11 weeks, LAQ 25 mg/kg 3 days per week, MMF 100 mg/kg 5 days/week, in % (unit assumed)", "result": "36.56 ± 4.92"}, {"measurement": "Frequency of cells ± SEM: CD4+", "setting": "spleen cell subsets; [4]", "result": "26.2 ± 1.3"}, {"measurement": "Frequency of cells ± SEM: CD8+", "setting": "spleen cell subsets; [4]", "result": "12.4 ± 0.9"}, {"measurement": "Frequency of cells ± SEM: CD11b^+Ly6C^+Ly6G+", "setting": "spleen cell subsets; [4]", "result": "15. ± 1.6"}, {"measurement": "Frequency of cells ± SEM: CD11b^+Ly6C^+Ly6G−", "setting": "spleen cell subsets; [4]", "result": "33.4 ± 1.8"}, {"measurement": "Frequency of cells ± SEM: CD11b^+MDSC−(Mφ)", "setting": "spleen cell subsets; [4]", "result": "59.3 ± 2.3"}, {"measurement": "Frequency of cells ± SEM: CD11c^+CD11b+(DC)", "setting": "spleen cell subsets; [4]", "result": "1.0 ± 0.1"}, {"measurement": "Frequency of cells ± SEM: CD11c^+CD11b− (DC)", "setting": "spleen cell subsets; [4]", "result": "4.4 ± 0.3"}, {"measurement": "Frequency of cells ± SEM: CD4^+CD25^+Foxp3^+", "setting": "spleen cell subsets; [5]", "result": "7.9 ± 0.4"}, {"measurement": "Frequency of cells ± SEM: CD19+", "setting": "spleen cell subsets; [5]", "result": "57.4 ± 3.9"}, {"measurement": "Frequency of cells ± SEM: CD4+", "setting": "spleen cell subsets; [6]", "result": "20.1 ± 0.7"}, {"measurement": "Frequency of cells ± SEM: CD8+", "setting": "spleen cell subsets; [6]", "result": "13.5 ± 2.1"}, {"measurement": "Frequency of cells ± SEM: CD11b^+Ly6C^+Ly6G+", "setting": "spleen cell subsets; [6]", "result": "17.5 ± 2.4"}, {"measurement": "Frequency of cells ± SEM: CD11b^+Ly6C^+Ly6G−", "setting": "spleen cell subsets; [6]", "result": "30.4 ± 2.7"}, {"measurement": "Frequency of cells ± SEM: CD11b^+MDSC−(Mφ)", "setting": "spleen cell subsets; [6]", "result": "40.5 ± 3.1"}, {"measurement": "Frequency of cells ± SEM: CD11c^+CD11b+(DC)", "setting": "spleen cell subsets; [6]", "result": "0.9 ± 0.2"}, {"measurement": "Frequency of cells ± SEM: CD11c^+CD11b− (DC)", "setting": "spleen cell subsets; [6]", "result": "4.1 ± 0.7"}, {"measurement": "Frequency of cells ± SEM: CD4^+CD25^+Foxp3^+", "setting": "spleen cell subsets; [7]", "result": "3.2 ± 0.8"}, {"measurement": "Frequency of cells ± SEM: CD19+", "setting": "spleen cell subsets; [7]", "result": "45.4 ± 3.3"}]}
